Reference: patent publication US5312838A, “β-alanineamide aryl/alkylsulfide/sulfonyl-terminated amino-diol compounds for treatment of hypertension” (G. D. Searle & Co., priority 1992, dated 1994)
Values belong to the molecule of their own block, whether it stands above or below them. Where a SMILES comes first, the peptide text is derived from it. [ ]: non-standard residue; d: D form. The star is where a group is joined. Sta = CC(C)C[C@H](N)[C@@H](O)CC(=O)O; Isovaleryl = CC(C)CC(=O)*

Key:
[1] = biological target: T1, human renin (Homo sapiens, UniProt P00797); experiment: Human Renin Inhibition in vitro (angiotensin I by radioimmunoassay); type: biochemical; conditions: pH 7.4, 37° C., two hours, human plasma
T1 construct: purchased National Institute for Biological Standards, London
T1 sequence (P00797 67-406): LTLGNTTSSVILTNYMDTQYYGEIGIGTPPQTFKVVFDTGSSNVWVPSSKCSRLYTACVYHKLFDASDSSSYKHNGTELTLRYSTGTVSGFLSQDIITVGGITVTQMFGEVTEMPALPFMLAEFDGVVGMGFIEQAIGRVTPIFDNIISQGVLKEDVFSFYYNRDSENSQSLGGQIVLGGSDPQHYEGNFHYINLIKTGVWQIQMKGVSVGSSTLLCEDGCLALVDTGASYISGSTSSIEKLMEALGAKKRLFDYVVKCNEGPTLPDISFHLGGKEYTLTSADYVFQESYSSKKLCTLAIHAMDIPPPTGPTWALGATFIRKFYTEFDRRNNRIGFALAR
Procedure: Compounds of Formula I were evaluated as inhibitors of human renin in an in vitro assay, as follows: This human renin inhibition test has been previously described in detail [Papaioannou et al., Clinical and Experimental Hypertension, A7(9), 1243-1257 (1985)]. Human renin was obtained from the National Institute for Biological Standards, London. An incubation mixture was prepared containing the following components: in a total volume of 0.25 mL: 100 mM Tris-acetate buffer at pH 7.4, 25×10^-6 Goldblatt units of renin, 0.05 mL of plasma from human volunteers taking oral contraceptives, 6.0 mM Na-EDTA, 2.4 mM phenylmethyl sulfonyl fluoride, 1.5 mM 8-hydroxyquinoline, 0.4 mg/mL bovine serum albumin (BSA), and 0.024 mg/mL neomycin sulfate. This mixture was incubated for two hours at 37° C. in the presence or absence of renin inhibitors. The produced angiotensin I was determined by radioimmunoassay (New England Nuclear kit). Test compounds to be assayed were dissolved in DMSO and diluted with 100 mM Tris-acetate buffer at pH 7.4 containing 0.5% BSA to the appropriate concentration. The final concentration of organic solvent in the reaction mixture was less than 1%. Control incubations at 37° C. were used to correct for effects of organic solvent on renin activity.

[2] = test system: pepsin; conditions: Umezawa et al, J. Antibiot. 1970; cited from earlier work
[3] = test system: cathepsin D; conditions: Umezawa et al, J. Antibiot. 1970; cited from earlier work
[4] = test system: renin; conditions: Umezawa et al, J. Antibiot. 1970; cited from earlier work
[5] = test system: hog renin; conditions: after injection of hog renin into nephrectomized rats; Gross et al, Science 1971; cited from earlier work

- IC50 [1]: 10 nM
SMILES: CC(C)C[C@H](O)[C@H](O)[C@H](CC1CCCCC1)NC(=O)C(C)CNC(=O)C(Cc1ccccc1)CS(=O)(=O)C(C)(C)C (stereo partly drawn) [Example 1, N-[3-[[1S,1R*-(cyclohexylmethyl)-2S*,3R*-5-methylhexyl]amino]-2S*-methyl-3-oxopropyl]-α-[[(1,1-dimethylethyl)sulfonyl]methyl]benzenepropanamide]

- inhibition at 0.01 µM ([1]; @ 10 nM): 30%
SMILES: CC(C)C[C@H](O)[C@H](O)[C@H](CC1CCCCC1)NC(=O)C(C)CNC(=O)C(CSC(C)(C)C)Cc1ccccc1 (stereo partly drawn) [Example 2, N-[3-[[1S,1R*-(cyclohexylmethyl)-2S*,3R*-dihydroxy-5-methylhexyl]amino]-2S*-methyl-2-3-oxopropyl]-α-[[(1,1-dimethylethyl)thio]methyl]benzenepropanamide]

SMILES: CC(C)CC(=O)N[C@H](C(=O)N[C@H](C(=O)N[C@@H](CC(C)C)[C@@H](O)CC(=O)N[C@@H](C)C(=O)N[C@@H](CC(C)C)[C@@H](O)CC(=O)O)C(C)C)C(C)C [pepstatin] (Isovaleryl-VV[Sta]A[Sta]-OH)
- inhibitor of pepsin [2]: inhibitor
- inhibitor of cathepsin D [3]: inhibitor
- inhibitor of renin [4]: inhibitor
- blood pressure in vivo [5]: reduce blood pressure
